Experimental data published in patent US7563590B2, “Methods of quantifying methotrexate metabolites” (Cypress Bioscience Inc., priority 2002, dated 2009).

Assays:
[1] = Intracellular MTX and MTXPG levels in RBCs of polyarthritis patients receiving low-dose MTX; format: in vivo, human; details: one patient on 2.5 mg per week MTX, RBC
Method: Blood samples (5 ml) from polyarthritis patients receiving low-dose MTX were collected after written informed consent. The patients had received a median of 15 mg MTX (range 2.5 mg to 40 mg per week) for at least three months. Blood samples were centrifuged for 10 minutes to separate plasma and buffy coat from RBCs. After washing the RBC pellet with 2 volumes of saline, RBC count was determined with a Beckman Coulter Onyx Counter; RBCs were subsequently stored at −70° C. until analysis. Results were normalized to 10^9 red blood cells. Patient results were expressed as average ±SEM (range).
MTXPG concentrations were determined using the methods described in Example II except that RBC extracts were not spiked with MTXPG. MTXPG concentrations were calculated by subtracting […]. To quantify MTX concentrations without enzymatic treatment, a second 100 μl aliquot of patient RBC extract was obtained but not treated with plasma or buffer. Rather, 200 μl water was added to the RBC extract prior to immediate deproteinization with 30 μl 70% perchloric acid as described above.
An exemplary determination of MTXPG concentration in the red blood cells of a patient on 2.5 mg per week MTX therapy follows. […]

gamma glutamyl hydrolase = biological target: T1, gamma glutamyl hydrolase (Homo sapiens, UniProt Q92820); test: Enzymatic conversion of MTXPGs to MTX in RBC extract using plasma as source of gamma glutamyl hydrolase; format: biochemical; details: for conversion to MTX: in the dark, 1000 nmol/L RBC
T1 construct: contacting the extract with plasma as a source of gamma glutamyl hydrolase; tissue Sigma P9523; host or cells: reconstituted lyophilized plasma (purchased), mixed with RBC hemolysate from healthy donors
T1 sequence (Q92820 25-318): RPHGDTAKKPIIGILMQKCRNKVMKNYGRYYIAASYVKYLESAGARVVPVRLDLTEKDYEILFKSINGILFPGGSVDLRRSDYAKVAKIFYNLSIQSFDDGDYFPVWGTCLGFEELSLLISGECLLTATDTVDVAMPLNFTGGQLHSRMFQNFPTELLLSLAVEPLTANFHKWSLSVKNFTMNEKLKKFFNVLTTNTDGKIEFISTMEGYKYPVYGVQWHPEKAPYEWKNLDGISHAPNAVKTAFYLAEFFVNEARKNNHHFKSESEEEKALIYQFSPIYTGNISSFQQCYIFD
Method: MTXPGs were enzymatically converted to MTX by incubation with RBC extract and plasma as follows. RBCs were isolated from healthy donors (Blood bank; San Diego, Calif.) Hemolysates were prepared having 0.88×10^9 RBC per 100 μl. For spiked samples, MTXPG (Schirks Laboratories; Jona, Switzerland) was added to RBC extracts at a final concentration of 1 μM (from stock solutions containing 100 μM MTXPG in 0.1 N potassium hydroxide). Reconstituted plasma was prepared from lyophilized plasma (Sigma, St. Louis, USA; Cat. No. P9523) and 100 μl was added to 50 μl of RBC extract, mixed for 30 seconds, and 100 μl of buffer containing 100 mM potassium phosphate pH 4.5 and 150 mM mercaptoethanol was added. […] Samples were incubated for 12-14 hours, unless otherwise indicated, in the dark at 37° C. After incubation 30 μl of 70% perchloric acid was added to the mixture, vortexed for 15 seconds and centrifuged for 10 minutes. A total volume of 80 μl was injected onto the HPLC system for analysis using the MTX detection system described in Example I.
The percent conversion of MTXPG to MTX was determined by comparing the peak area of MTX formed during the enzymatic conversion at different times with the peak area of MTX spiked in the red blood cells at the same concentration.

SMILES: CN(Cc1cnc2nc(N)nc(N)c2n1)c1ccc(C(=O)N[C@@H](CCC(=O)O)C(=O)O)cc1 [MTX, methotrexate]
- MTX concentration prior to enzymatic conversion [1]: 16.5 pmol MTXPG/10^9 cells

SMILES: CN(Cc1cnc2nc(N)nc(N)c2n1)c1ccc(C(=O)N[C@@H](CCC(=O)N[C@@H](CCC(=O)O)C(=O)O)C(=O)O)cc1 [MTXPG2]
- slope of plot of observed MTX concentration versus spiked concentration (gamma glutamyl hydrolase; RBC sample spiked prior to deglutamation (FIG. 5)): 0.98
- conversion to MTX (gamma glutamyl hydrolase; after 8 hour incubation at 37° C.): completely converted
- conversion to MTX (gamma glutamyl hydrolase; by 4 hours, 37° C.): largely complete
